Common to all, as to type: functional, cell-based
One assay relates to MCF7. As to the kind of experiment: Cytotoxicity in human MCF7 cells assessed as reduction in cell viability incubated for 48 hrs by MTT assay. The conditions noted are these: MCF7, 48 h. Background: Tetrazolium assays rely on reduction of a dye to a coloured formazan, in cell work by metabolically active cells.
Another assay has as its system A549. As to the kind of experiment: Cytotoxicity in human A549 cells assessed as reduction in cell viability incubated for 48 hrs by MTT assay. The settings on record: A549, 48 h.
The next assay deals with MDA-MB-231. The assay can be described thus: Cytotoxicity in human MDA-MB-231 cells assessed as reduction in cell viability incubated for 48 hrs by MTT assay. The conditions noted are these: MDA-MB-231, 48 h.
In the next assay the test system is DU-145. As to the kind of experiment: Cytotoxicity in human DU145 cells assessed as reduction in cell viability incubated for 48 hrs by MTT assay. The conditions noted are these: DU-145, 48 h.
The subject of a further assay is B16-F10. The assay can be described thus: Cytotoxicity in mouse B16/F10 cells assessed as reduction in cell viability incubated for 48 hrs by MTT assay. The settings on record: B16-F10, 48 h.

IC50 data for 25 molecules are collected here from ChEMBL document CHEMBL4118131, “Synthesis of 1,2,4-triazole-linked urea/thiourea conjugates as cytotoxic and apoptosis inducing agents” (Bioorg Med Chem Lett, 2018).

The structures appear in SMILES notation.

As a reminder, the IC50 is the concentration needed to halve the response being measured. Regarding `COc1ccc(CN(C(=S)Nc2cc(C(F)(F)F)cc(C(F)(F)F)c2)n2cnnc2)cc1OC`, the IC50 was determined as 15.5 µM in the assay with MCF7; 16.2 µM in the assay on A549; 25.3 µM in the assay on MDA-MB-231; 26.4 µM with DU-145; 8.54 µM in the assay on B16-F10.
For `CC1CCC(NC(=O)N(Cc2ccccn2)n2cnnc2)CC1` (configuration not stated), in that order: 34 µM, 43.7 µM, 33.2 µM, 20.1 µM and 39.7 µM.
Regarding `N#Cc1ccc(CN(C(=O)Nc2ccccc2)n2cnnc2)cc1`, the IC50 with MCF7 is more than 50 µM; in the assay with A549, more than 50 µM; with MDA-MB-231, more than 50 µM; in the assay on DU-145, more than 50 µM; in the assay on B16-F10, 34.7 µM.
Consider `COc1ccc(OC)c(CN(C(=S)Nc2ccc(C)cc2)n2cnnc2)c1`, for which the half-inhibitory concentration (IC50) is more than 50 µM in the assay on MCF7; 17.4 µM with A549; more than 50 µM in the assay on MDA-MB-231; 20.9 µM in the assay with DU-145; 20.7 µM in the assay with B16-F10.
Take `COc1ccc(OC)c(CN(C(=S)NC2CCCCC2)n2cnnc2)c1`: the IC50 was more than 50 µM in the assay with MCF7; 21.5 µM in the assay on A549; more than 50 µM with MDA-MB-231; 29.8 µM in the assay with DU-145; 39.5 µM with B16-F10.
As to `Cc1ccsc1CN(C(=O)Nc1ccc(Cl)c(C(F)(F)F)c1)n1cnnc1`, the 50% inhibitory concentration (IC50) was determined as 30.1 µM in the assay on MCF7; 26.2 µM with A549; 29.6 µM in the assay with MDA-MB-231; 24.1 µM in the assay with DU-145; 22.1 µM with B16-F10.
For `CCc1ccc(NC(=S)N(Cc2ccc(OC)c(OC)c2)n2cnnc2)cc1`, in that order: more than 50 µM, 28.4 µM, more than 50 µM, more than 50 µM and 22.9 µM.
As for `CCc1ccc(NC(=S)N(Cc2cc(OC)c(OC)c(OC)c2)n2cnnc2)cc1`, the IC50 in the assay with MCF7 turned out to be 24.8 µM; with A549 it was 17.2 µM; in the assay with MDA-MB-231, 24.8 µM; in the assay with DU-145, 21.4 µM; in the assay with B16-F10, 24.7 µM.
As for `Cc1ccsc1CN(C(=O)Nc1cccc(Cl)c1)n1cnnc1`, the concentration for half-maximal inhibition (IC50) with MCF7 is 31.2 µM; in the assay on A549 it was 21.4 µM; in the assay on MDA-MB-231, 40.3 µM; in the assay with DU-145 it was 20.4 µM; in the assay with B16-F10, more than 50 µM.
The corresponding values for `COc1cc(CN(C(=S)Nc2ccc(C)cc2)n2cnnc2)cc(OC)c1OC` are more than 50 µM, 22.8 µM, more than 50 µM, 20.8 µM and 46.8 µM.
Take `CCCCCCCCCNC(=S)N(Cc1cc(OC)ccc1OC)n1cnnc1`: the half-maximal inhibitory concentration (IC50) in the assay with MCF7 is more than 50 µM; in the assay with A549 it was more than 50 µM; in the assay with MDA-MB-231, more than 50 µM; with DU-145, more than 50 µM; in the assay on B16-F10 it was 29.4 µM.
Consider `COc1cc(CN(C(=O)Nc2ccc(C#N)cc2)n2cnnc2)cc(OC)c1OC`, for which the concentration for half-maximal inhibition (IC50) with MCF7 is more than 50 µM; with A549, 20.7 µM; with MDA-MB-231, more than 50 µM; with DU-145, 20.6 µM; in the assay on B16-F10, 21 µM.
Take `COc1ccc(CN(C(=S)Nc2ccc(F)c(Cl)c2)n2cnnc2)cc1OC`: the half-inhibitory concentration (IC50) in the assay with MCF7 stood at 30.1 µM; in the assay with A549 it was 21 µM; in the assay with MDA-MB-231 it was 27.9 µM; in the assay on DU-145 it was 23.3 µM; in the assay on B16-F10 it was 20.7 µM.
Regarding `O=c1[nH]cc(F)c(=O)[nH]1` [FLUOROURACIL], the IC50 came out at 16.7 µM in the assay on MCF7 and 39.2 µM in the assay with DU-145.
With `O=C(Nc1ccccc1)N(Cc1ccccn1)n1cnnc1`, the concentration for half-maximal inhibition (IC50) with MCF7 was more than 50 µM; in the assay on A549, 24.9 µM; in the assay on MDA-MB-231, more than 50 µM; with DU-145, 20.2 µM; with B16-F10, 23.7 µM.
For `Cc1ccc(NC(=O)N(Cc2ccccn2)n2cnnc2)cc1`, the 50% inhibitory concentration (IC50) with MCF7 is 38.9 µM; in the assay on A549, 21.9 µM; in the assay with MDA-MB-231, 39.5 µM; in the assay on DU-145, 21.5 µM; with B16-F10, 35.2 µM.
For `COc1cc(CN(C(=S)Nc2cc(C(F)(F)F)cc(C(F)(F)F)c2)n2cnnc2)cc(OC)c1OC`, in that order: 23.8 µM, 21 µM, 24.9 µM, 23.1 µM and 5.62 µM.
With `COc1ccc(CN(C(=O)Nc2ccc(Cl)c(C(F)(F)F)c2)n2cnnc2)cc1OC`, the half-inhibitory concentration (IC50) in the assay with MCF7 is more than 50 µM; with A549, 29.3 µM; in the assay on MDA-MB-231, more than 50 µM; in the assay with DU-145, more than 50 µM; in the assay with B16-F10 it was more than 50 µM.
For the molecule `COc1ccc(CN(C(=O)Nc2ccc(Cl)cc2)n2cnnc2)cc1OC`, the IC50 with MCF7 is more than 50 µM; in the assay on A549, 44.2 µM; in the assay on MDA-MB-231 it was more than 50 µM; in the assay on DU-145, 20.4 µM; in the assay on B16-F10 it was 42.2 µM.
Turning to `COc1ccc(CN(C(=O)Nc2ccc(C#N)cc2)n2cnnc2)cc1OC`, the 50% inhibitory concentration (IC50) in the assay with MCF7 was more than 50 µM; in the assay on A549, more than 50 µM; in the assay on MDA-MB-231, more than 50 µM; with DU-145, 24.1 µM; in the assay on B16-F10, more than 50 µM.
As to `O=C(NC1CCCCC1)N(Cc1ccccn1)n1cnnc1`, the concentration for half-maximal inhibition (IC50) with MCF7 is 46.9 µM; in the assay on A549, more than 50 µM; in the assay on MDA-MB-231 it was 44.1 µM; in the assay with DU-145, more than 50 µM; with B16-F10 it was 35.8 µM.
`Cc1ccsc1CN(C(=O)Nc1cccc(C#N)c1)n1cnnc1`: the IC50 is more than 50 µM in the assay on MCF7; 26 µM in the assay with A549; more than 50 µM in the assay on MDA-MB-231; 31 µM in the assay with DU-145; 28.9 µM with B16-F10.
Regarding `Cc1ccsc1CN(C(=O)Nc1ccccc1)n1cnnc1`, the IC50 in the assay on MCF7 was more than 50 µM; in the assay with A549, 22.1 µM; in the assay with MDA-MB-231, more than 50 µM; with DU-145 it was more than 50 µM; in the assay with B16-F10, 31.1 µM.
Regarding `COc1ccc(CN(C(=S)Nc2ccc(C)cc2)n2cnnc2)cc1OC`, the concentration for half-maximal inhibition (IC50) in the assay on MCF7 is more than 50 µM; in the assay on A549 it was 22.2 µM; in the assay on MDA-MB-231 it was more than 50 µM; in the assay with DU-145 it was 26.3 µM; with B16-F10, 29.9 µM.
As for `O=C(NCc1ccccc1)N(Cc1ccccn1)n1cnnc1`, the concentration for half-maximal inhibition (IC50) is more than 50 µM in the assay on MCF7; 22 µM with A549; more than 50 µM in the assay with MDA-MB-231; 21.2 µM in the assay on DU-145; 31 µM in the assay on B16-F10.
